Experimental data taken from ChEMBL document CHEMBL6078613, “Cathepsin B: The dawn of tumor therapy” (Eur J Med Chem, 2024).
Blank lines part the entries; values can stand above or below the compound they belong to. Where a SMILES comes first, the peptide text is derived from it. The star is where a group is joined. Cbz = O=C(OCc1ccccc1)*; CH2F = FC*

Columns and labels:
Cathepsin B [1] = molecular target: T1, Cathepsin B (Homo sapiens, UniProt P07858); experiment: Inhibition of Cathepsin B (unknown origin)
[2] = Inhibition of Cathepsin B-like cysteine protease (unknown origin); parameters: species or system Homo sapiens
Cathepsin B [3] = molecular target: T1, Cathepsin B; experiment: Inhibition of Cathepsin B (unknown origin) at 10 uM relative to control

IC50 (Cathepsin B [1]): 6 µM
Compound: COC(=O)CC[C@H](NC(=O)[C@H](Cc1c[nH]c2ccccc12)NC(=O)OCc1ccccc1)C(=O)N[C@@H](Cc1cnc[nH]1)C(=O)N[C@@H](CC(=O)OC)C(=O)CF (Cbz-WE(OMe)HD(OMe)-CH2F)

IC50 [2]: 0.009 µM
Compound: CC(C)C[C@H](NC(=O)[C@H]1O[C@@H]1C(=O)O)C(=O)NCCCCN=C(N)N [E-64]

inhibition (Cathepsin B [3]): 91%
Compound: CCOC(=O)[C@H]1O[C@@H]1C(=O)N[C@@H](CC(C)C)C(=O)NCCC(C)C
